Where “and” joins values, the source holds several entries; their conditions need not be identical. Identical values can stand only once.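 Following 48 hours of exposure in 96-well plates, responses at five concentrations were used to interpolate endpoints linearly. GI50 marks 50% less growth.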 Calls of active or inactive are those of the source. Rule as the data show it: active = GI50 up to about 1.1 µM and inactive = higher.
Assays:
Assay in all cases: NCI tumour cell line growth inhibition, 48 h
Malme-3M = system: Malme-3M
HOP-62 = system: HOP-62
SW-620 = system: SW-620
SN12C = system: SN12C
LXFL 529 = system: LXFL 529
EKVX = system: EKVX
U-251 = system: U-251
COLO 205 = system: COLO 205
NCI-H23 = system: NCI-H23
IGROV-1 = system: IGROV-1
SK-OV-3 = system: SK-OV-3
DLD-1 = system: DLD-1
DMS-273 = system: DMS-273
TK-10 = system: TK-10
UO-31 = system: UO-31
RPMI-8226 = system: RPMI-8226
HCT-116 = system: HCT-116
NCI-H522 = system: NCI-H522
OVCAR-8 = system: OVCAR-8
SK-MEL-28 = system: SK-MEL-28
SK-MEL-2 = system: SK-MEL-2
SNB-75 = system: SNB-75
KM12 = system: KM12
NCI-H226 = system: NCI-H226
M19-MEL = system: M19-MEL
HL-60 = system: HL-60
OVCAR-3 = system: OVCAR-3
HCT-15 = system: HCT-15
SF-268 = system: SF-268
NCI-H460 = system: NCI-H460
UACC-257 = system: UACC-257
MOLT-4 = system: MOLT-4
M14 = system: M14
UACC-62 = system: UACC-62
HOP-92 = system: HOP-92
ACHN = system: ACHN
SK-MEL-5 = system: SK-MEL-5
SR = system: SR
HT-29 = system: HT-29
CAKI-1 = system: CAKI-1
SF-295 = system: SF-295
KM-20L2 = system: KM-20L2
K562 = system: K562
LOX IMVI = system: LOX IMVI
OVCAR-4 = system: OVCAR-4
HCC 2998 = system: HCC 2998
OVCAR-5 = system: OVCAR-5
RXF 393 = system: RXF 393
CCRF-CEM = system: CCRF-CEM
DMS-114 = system: DMS-114
MDA-MB-435 = system: MDA-MB-435
MCF7 = system: MCF7
Hs-578T = system: Hs-578T
PC-3 = system: PC-3
NCI/ADR-RES = system: NCI/ADR-RES
A498 = system: A498
MDA-N = system: MDA-N
MDA-MB-231 = system: MDA-MB-231
A549 = system: A549
DU-145 = system: DU-145
BT-549 = system: BT-549
HOP-18 = system: HOP-18
SNB-78 = system: SNB-78
T47D = system: T47D

With CN(C)C(=O)OC1C(=O)N(C)c2ccc(Cl)cc2C2(c3ccccc3)N1C2(Cl)Cl (stereo not drawn) as the compound, how does the GI50 (Malme-3M) read?
Its GI50 is > 100 µM (inactive).

What about the GI50 (HOP-62) of the same compound?
Its GI50 is 54.8 µM (inactive).

What about the GI50 (SW-620) of the same compound?
Its GI50 is > 100 µM (inactive).

And the GI50 (SN12C)?
The GI50 was 59.3 µM (inactive).

And the GI50 (LXFL 529)?
The GI50 was > 100 µM (inactive).

What about the GI50 (EKVX) of the same compound?
The GI50 was 44.4 µM (inactive).

And the GI50 (U-251)?
Its GI50 is 45.3 µM (inactive).

And the GI50 (COLO 205)?
The GI50 was > 100 µM (inactive).

What about the GI50 (NCI-H23) of the same compound?
Its GI50 is 47.8 µM (inactive).

What about the GI50 (IGROV-1) of the same compound?
Its GI50 is > 100 µM (inactive).

What about the GI50 (SK-OV-3) of the same compound?
The GI50 was 82.8 µM (inactive).

And the GI50 (DLD-1)?
Its GI50 is 55.1 µM (inactive).

What about the GI50 (DMS-273) of the same compound?
The GI50 was 72.4 µM (inactive).

What about the GI50 (TK-10) of the same compound?
The GI50 was 56.5 µM (inactive).

What about the GI50 (UO-31) of the same compound?
Its GI50 is 49.2 µM (inactive).

What about the GI50 (RPMI-8226) of the same compound?
Its GI50 is 46.5 µM (inactive).

What about the GI50 (HCT-116) of the same compound?
Its GI50 is 62.7 µM (inactive).

And the GI50 (NCI-H522)?
Its GI50 is 46 µM (inactive).

And the GI50 (OVCAR-8)?
The GI50 was 95.5 µM (inactive).

And the GI50 (SK-MEL-28)?
Its GI50 is > 100 µM (inactive).

What about the GI50 (SK-MEL-2) of the same compound?
The GI50 was > 100 µM (inactive).

And the GI50 (SNB-75)?
Its GI50 is 69.3 µM (inactive).

What about the GI50 (KM12) of the same compound?
Its GI50 is 62.1 µM (inactive).

And the GI50 (NCI-H226)?
Its GI50 is 38.7 µM (inactive).

What about the GI50 (M19-MEL) of the same compound?
The GI50 was > 100 µM (inactive).

And the GI50 (HL-60)?
Its GI50 is 29.4 µM (inactive).

And the GI50 (OVCAR-3)?
Its GI50 is 53.8 µM (inactive).

And the GI50 (HCT-15)?
Its GI50 is 60.4 µM.

And the GI50 (SF-268)?
Its GI50 is > 100 µM (inactive).

And the GI50 (NCI-H460)?
The GI50 was > 100 µM (inactive).

And the GI50 (UACC-257)?
Its GI50 is 66.8 µM (inactive).

And the GI50 (MOLT-4)?
Its GI50 is 47.9 µM (inactive).

And the GI50 (M14)?
The GI50 was > 100 µM (inactive).

And the GI50 (UACC-62)?
Its GI50 is 64.7 µM (inactive).

What about the GI50 (HOP-92) of the same compound?
Its GI50 is 18.7 µM (inactive).

What about the GI50 (ACHN) of the same compound?
The GI50 was > 100 µM (inactive).

And the GI50 (SK-MEL-5)?
Its GI50 is 40.3 µM (inactive).

What about the GI50 (SR) of the same compound?
Its GI50 is 49.7 µM (inactive).

And the GI50 (HT-29)?
Its GI50 is > 100 µM (inactive).

And the GI50 (CAKI-1)?
The GI50 was > 100 µM (inactive).

What about the GI50 (SF-295) of the same compound?
The GI50 was 77.1 µM (inactive).

And the GI50 (KM-20L2)?
Its GI50 is 40 µM (inactive).

And the GI50 (K562)?
The GI50 was 56.6 µM (inactive).

And the GI50 (LOX IMVI)?
Its GI50 is > 100 µM (inactive).

And the GI50 (OVCAR-4)?
The GI50 was > 100 µM (inactive).

And the GI50 (HCC 2998)?
Its GI50 is > 100 µM (inactive).

And the GI50 (OVCAR-5)?
Its GI50 is > 100 µM (inactive).

What about the GI50 (RXF 393) of the same compound?
The GI50 was 69.2 µM (inactive).

What about the GI50 (CCRF-CEM) of the same compound?
The GI50 was 75.2 µM (inactive).

What does the source list for COc1cc2c3cc1Oc1c(OC)c(OC)cc4c1C(Cc1ccc(cc1)Oc1cc(ccc1O)CC3N(C)CC2)N(C)CC4 (stereo not drawn)?
GI50 (DMS-114): 11.9 µM (inactive); GI50 (Malme-3M): 7.01 µM (inactive) and 14 µM (inactive); GI50 (HOP-62): 18.1 µM (inactive); GI50 (SW-620): 10.3 µM (inactive) and 8.36 µM (inactive); GI50 (MDA-MB-435): 8.09 µM (inactive); GI50 (SN12C): 21.7 µM (inactive) and 15.1 µM (inactive); GI50 (MCF7): 6.44 µM (inactive); GI50 (Hs-578T): 10.8 µM (inactive); GI50 (LXFL 529): 13.6 µM (inactive); GI50 (EKVX): 24.9 µM (inactive) and 13.1 µM (inactive); GI50 (PC-3): 10.4 µM (inactive); GI50 (U-251): 11.2 µM (inactive) and 9.08 µM (inactive); GI50 (NCI-H23): 12.8 µM (inactive) and 17.1 µM (inactive); GI50 (IGROV-1): 16.7 µM (inactive) and 11.4 µM (inactive); GI50 (SK-OV-3): 13.4 µM (inactive) and 25.6 µM (inactive); GI50 (DLD-1): 11.4 µM (inactive); GI50 (TK-10): 12.1 µM (inactive) and 22.8 µM (inactive); GI50 (UO-31): 4.9 µM (inactive) and 8.28 µM (inactive); GI50 (RPMI-8226): 6.64 µM (inactive); GI50 (HCT-116): 4.6 µM (inactive) and 6.76 µM (inactive); GI50 (NCI/ADR-RES): 19.3 µM (inactive); GI50 (SK-MEL-2): 12.9 µM (inactive) and 8.69 µM (inactive); GI50 (SNB-75): 11.1 µM (inactive) and 11.8 µM (inactive); GI50 (KM12): 11.9 µM (inactive) and 11.4 µM (inactive); GI50 (NCI-H226): 16.8 µM (inactive) and 18.9 µM (inactive); GI50 (M19-MEL): 11.9 µM (inactive); GI50 (OVCAR-3): 13.6 µM (inactive) and 15.8 µM (inactive); GI50 (SF-268): 14.1 µM (inactive) and 10.8 µM (inactive); GI50 (A498): 16.1 µM (inactive); GI50 (MDA-N): 4.73 µM (inactive); GI50 (MOLT-4): 4.41 µM (inactive) and 5.09 µM (inactive); GI50 (M14): 1.87 µM (inactive) and 2 µM (inactive); GI50 (MDA-MB-231): 10.1 µM (inactive); GI50 (UACC-62): 8.89 µM (inactive) and 15.1 µM (inactive); GI50 (A549): 14.9 µM (inactive) and 8.99 µM (inactive); GI50 (HOP-92): 16.2 µM (inactive); GI50 (DU-145): 10.6 µM (inactive); GI50 (SR): 2.78 µM (inactive) and 2.06 µM (inactive); GI50 (HT-29): 2.78 µM (inactive) and 5.09 µM (inactive); GI50 (BT-549): 10.1 µM (inactive); GI50 (CAKI-1): 14.3 µM (inactive) and 16.9 µM (inactive); GI50 (HOP-18): > 100 µM (inactive); GI50 (KM-20L2): 10.4 µM (inactive); GI50 (SNB-78): 20.9 µM (inactive); GI50 (T47D): 11.3 µM (inactive); GI50 (K562): 1.49 µM (inactive) and 1.71 µM (inactive); GI50 (OVCAR-4): 12.4 µM (inactive) and 14.1 µM (inactive); GI50 (OVCAR-5): 18.5 µM (inactive) and 14.8 µM (inactive); GI50 (RXF 393): 1.29 µM (inactive) and 1.09 µM (active)

From ChEMBL document CHEMBL1201862, “PubChem BioAssay data set” (2004)
